“And” between values parts separate entries of the source, which are not always exact repeats. Equal entries are not always repeated.
System: 885512-296-R-J2-PDC complex spheroid growth, % test/control
Assay: Anticancer human tumor 885512-296-R-J2-PDC patient-derived breast carcinoma cell line growth inhibition [AhR]
Details: for viability, T/C: stronger effect = lower value
How it was run: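 Agents were dosed in half-log steps down from roughly clinical Cmax, or from 10 microM where Cmax was unknown, alone and with AhR antagonists. Read-out: percent test/control growth of tumor spheroids containing HUVEC and MSC stromal cells.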

[1] = curve of first compound, second compound 0.1 µM
[2] = curve of first compound, second compound 0.316 µM
[3] = curve of first compound, second compound 1 µM
[4] = curve of first compound, second compound 3.16 µM
[5] = curve of first compound, second compound 10 µM
[6] = second compound 0.1 µM, first compound 0.0316 µM
[7] = second compound 0.1 µM, first compound 0.1 µM
[8] = second compound 0.1 µM, first compound 0.316 µM
[9] = second compound 0.1 µM, first compound 1 µM
[10] = second compound 0.1 µM, first compound 3.16 µM
[11] = second compound 0.1 µM, first compound 10 µM
[12] = second compound 0.316 µM, first compound 0.0316 µM
[13] = second compound 0.316 µM, first compound 0.1 µM
[14] = second compound 0.316 µM, first compound 0.316 µM
[15] = second compound 0.316 µM, first compound 1 µM
[16] = second compound 0.316 µM, first compound 3.16 µM
[17] = second compound 0.316 µM, first compound 10 µM
[18] = second compound 1 µM, first compound 0.0316 µM
[19] = second compound 1 µM, first compound 0.1 µM
[20] = second compound 1 µM, first compound 0.316 µM
[21] = second compound 1 µM, first compound 1 µM
[22] = second compound 1 µM, first compound 3.16 µM
[23] = second compound 1 µM, first compound 10 µM
[24] = second compound 3.16 µM, first compound 0.0316 µM
[25] = second compound 3.16 µM, first compound 0.1 µM
[26] = second compound 3.16 µM, first compound 0.316 µM
[27] = second compound 3.16 µM, first compound 1 µM
[28] = second compound 3.16 µM, first compound 3.16 µM
[29] = second compound 3.16 µM, first compound 10 µM
[30] = second compound 10 µM, first compound 0.0316 µM
[31] = second compound 10 µM, first compound 0.1 µM
[32] = second compound 10 µM, first compound 0.316 µM
[33] = second compound 10 µM, first compound 1 µM
[34] = second compound 10 µM, first compound 3.16 µM
[35] = second compound 10 µM, first compound 10 µM
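Note: spheroids exposed to compounds for seven days.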

O=C(C=Cc1cccc(S(=O)(=O)Nc2ccccc2)c1)NO + Cc1cncc(-c2nc(NCCc3c[nH]c4ccccc34)c3ncn(C(C)C)c3n2)c1
IC50 [1]: 1010 nM | IC50 [2]: 1340 nM | IC50 [3]: 680 nM | IC50 [4]: 153 nM | IC50 [5]: < 31.6 nM | viability, T/C [6]: 77.7% | viability, T/C [7]: 93.9% | viability, T/C [8]: 70.5% | viability, T/C [9]: 45% | viability, T/C [10]: 30.8% | viability, T/C [11]: 7.26% | viability, T/C [12]: 86.3% | viability, T/C [13]: 80.5% | viability, T/C [14]: 74.2% | viability, T/C [15]: 50% | viability, T/C [16]: 37.5% | viability, T/C [17]: 7.14% | viability, T/C [18]: 96.1% | viability, T/C [19]: 72.5% | viability, T/C [20]: 65.2% | viability, T/C [21]: 41.1% | viability, T/C [22]: 31.1% | viability, T/C [23]: 9.39% | viability, T/C [24]: 52.2% | viability, T/C [25]: 62% | viability, T/C [26]: 39.5% | viability, T/C [27]: 31.8% | viability, T/C [28]: 21.8% | viability, T/C [29]: 10.2% | viability, T/C [30]: 20.6% | viability, T/C [31]: 20.6% | viability, T/C [32]: 19.5% | viability, T/C [33]: 16% | viability, T/C [34]: 12.6% | viability, T/C [35]: 5.42%

COc1cc(C2c3cc4c(cc3C(OC3OC5COC(C)OC5C(O)C3O)C3COC(=O)C23)OCO4)cc(OC)c1O (stereo not drawn) + Cc1ccccc1N=Nc1ccc(NC(=O)c2ccnn2C)c(C)c1
IC50 [1]: 404 nM | IC50 [2]: 415 nM | IC50 [3]: 423 nM | IC50 [4]: 290 nM | IC50 [5]: 186 nM | viability, T/C [6]: 101% | viability, T/C [7]: 115% | viability, T/C [8]: 59.6% | viability, T/C [9]: 19.2% | viability, T/C [10]: 7.36% | viability, T/C [11]: 7.36% | viability, T/C [12]: 120% | viability, T/C [13]: 107% | viability, T/C [14]: 60.2% | viability, T/C [15]: 17.9% | viability, T/C [16]: 9.41% | viability, T/C [17]: 9.17% | viability, T/C [18]: 96.2% | viability, T/C [19]: 102% | viability, T/C [20]: 60.8% | viability, T/C [21]: 17.3% | viability, T/C [22]: 9.27% | viability, T/C [23]: 8.44% | viability, T/C [24]: 81.4% | viability, T/C [25]: 71.5% | viability, T/C [26]: 49.5% | viability, T/C [27]: 15.3% | viability, T/C [28]: 7.76% | viability, T/C [29]: 7.73% | viability, T/C [30]: 57.4% | viability, T/C [31]: 63.5% | viability, T/C [32]: 41.1% | viability, T/C [33]: 13.5% | viability, T/C [34]: 8.01% | viability, T/C [35]: 7.22%

COc1cc(Nc2ncc3c(n2)-c2ccc(Cl)cc2C(c2c(F)cccc2OC)=NC3)ccc1C(=O)O
viability, T/C (compound 0.0316 µM): 53.5% and 54% and 51.9% | viability, T/C (compound 0.1 µM): 43.2% and 52% and 43.9% | viability, T/C (compound 0.316 µM): 48.8% and 56.9% and 53% | viability, T/C (compound 1 µM): 42.7% and 45% and 41.8% | viability, T/C (compound 3.16 µM): 38.3% and 53.3% and 41.6% | viability, T/C (compound 10 µM): 37% (2×) and 39.3%

CC1(C)CCC(CN2CCN(c3ccc(C(=O)NS(=O)(=O)c4ccc(NCC5CCOCC5)c([N+](=O)[O-])c4)c(Oc4cnc5[nH]ccc5c4)c3)CC2)=C(c2ccc(Cl)cc2)C1
viability, T/C (compound 0.0316 µM): 110% and 95.6% and 109% | viability, T/C (compound 0.1 µM): 109% and 91.1% and 99.6% | viability, T/C (compound 0.316 µM): 91.2% and 87.2% and 101% | viability, T/C (compound 1 µM): 94.4% and 79.7% and 98% | viability, T/C (compound 3.16 µM): 59.5% and 62.4% and 71.5% | viability, T/C (compound 10 µM): 24.6% and 16.2% and 41.4% | IC50 (curve of compound): 4590 nM and 4220 nM and 7200 nM
